In one series the test system is MCF7 cells. Put plainly: cells. As to conditions: Homo sapiens, MCF7, 72 h, read-out: Cell proliferation IC50 ± SD.
The test system of the next series is A375 cells. Put plainly: cells. As to conditions: Homo sapiens, A-375, 72 h, read-out: Cell proliferation IC50 ± SD.
In a further series the test system is A549 cells. Put plainly: cells. As to conditions: Homo sapiens, A549, 72 h, read-out: Cell proliferation IC50 ± SD.
The subject of a further series is HeLa cells. Put plainly: cells. As to conditions: Homo sapiens, 72 h, read-out: Cell proliferation IC50 ± SD.
Another series relates to G-361 cells. Put plainly: cells. The following applies: Homo sapiens, G-361, 72 h, read-out: Cell proliferation IC50 ± SD.
Another series concerns set of 47 proteins. Put plainly: Off-target safety profiling. As to conditions: tested at 2 µM.
The target in a further series is hERG channel (Homo sapiens, UniProt Q12809). Put plainly: Off-target safety profiling, hERG channel. As to conditions: tested at 2 µM. Background: hERG is a cardiac potassium channel; its block is linked to QT prolongation.
Series [1] relates to H2AX phosphorylation in HeLa cells. Put plainly: Immunodetection of H2AX phosphorylation. Type of series: cell-based, human. As to conditions: 90 minutes, at IC50 concentration.
The next series deals with human topoIIβ (Homo sapiens, UniProt Q02880). Put plainly: DNA relaxation catalyzed by human topoIIβ. The series is classed as biochemical.
A further series deals with relaxed pBR322 DNA. Put plainly: DNA intercalation. The series is classed as binding. The following applies: 0-25 µM compound.
For series [2], the target named is T1, human topoIIα (Homo sapiens, UniProt P11388). Put plainly: DNA cleavage assay. The series is classed as biochemical. As to conditions: 0-200 µM compound.
Series [3] concerns the target T1, human topoIIα. Put plainly: ATP hydrolysis. The series is classed as biochemical. The following applies: 0-25 µM compound.
Series [4] concerns the target T1, human topoIIα. Put plainly: DNA relaxation catalyzed by human topoIIα. The series is classed as biochemical. As to conditions: ratio of DNA relaxation IC50 values.
For series [5] the following is noted: mouse, in vivo, ip, 10 mg/kg.

The record followed here is publication PMC7668297 (Journal of medicinal chemistry, 2020).

“Also recorded” adds a separate entry of the source.

For the molecule `NC1CCc2nc(-c3ccncc3)nc(Nc3cccc(F)c3)c2C1` (stereo not shown) [Compound 1, N4-(3-fluorophenyl)-2-(4-pyridyl)-5,6,7,8-tetrahydroquinazoline-4,6-diamine], the IC50 in the series with MCF7 cells was 13.9 ± 2.3 µM; in the series with A375 cells it was 9.9 ± 0.1 µM; with A549 cells, 19.4 ± 1.8 µM; in the series with HeLa cells, 17 ± 1.9 µM; in the series with G-361 cells it was 1.4 ± 0.4 µM.
Consider `N[C@H]1CCc2nc(-c3ccncc3)nc(Nc3cccc(F)c3)c2C1` [Compound 3, (6R)-N4-(3-fluorophenyl)-2-(4-pyridyl)-5,6,7,8-tetrahydroquinazoline-4,6-diamine], for which the IC50 in the series on MCF7 cells was 14.2 ± 2.5 µM; in the series with A375 cells it was 10.7 ± 0.1 µM; in the series on A549 cells, 23.3 ± 2.3 µM; in the series with HeLa cells, 17.1 ± 3.2 µM.
Turning to `N[C@@H]1CCc2nc(-c3ccncc3)nc(Nc3cccc(F)c3)c2C1` [Compound 4, (6S)-N4-(3-fluorophenyl)-2-(4-pyridyl)-5,6,7,8-tetrahydroquinazoline-4,6-diamine], the IC50 in the series with MCF7 cells amounted to 16.2 ± 2.6 µM; in the series on A375 cells, 10.8 ± 0.1 µM; with A549 cells it was 17.8 ± 0.6 µM; in the series with HeLa cells it was 21.8 ± 4.6 µM; in the series on G-361 cells, 1.8 ± 0.6 µM.
For `NC1CCc2nc(-c3ccncc3)nc(Nc3ccc(F)cc3)c2C1` (stereo not shown) [Compound 10, N4-(4-fluorophenyl)-2-(4-pyridyl)-5,6,7,8-tetrahydroquinazoline-4,6-diamine], in that order: 16 ± 0.5 µM, 12.3 ± 1.8 µM, 22.9 ± 6.5 µM, 20.8 ± 4.5 µM and 3 ± 0.7 µM.
For `COc1cccc(Nc2nc(-c3ccncc3)nc3c2CC(N)CC3)c1` (stereo not shown) [Compound 11, N4-(3-methoxyphenyl)-2-(4-pyridyl)-5,6,7,8-tetrahydroquinazoline-4,6-diamine], in that order: 15.8 ± 1.4 µM, 15.1 ± 4.8 µM, 18 ± 0.1 µM, 17.2 ± 2.6 µM and 6.6 ± 3.1 µM.
On to `CN(C)c1ccc(Nc2nc(-c3ccncc3)nc3c2CC(N)CC3)cc1` (stereo not shown) [Compound 14, N4-[4-(dimethylamino)phenyl]-2-(4-pyridyl)-5,6,7,8-tetrahydroquinazoline-4,6-diamine], for which the “off-target activity (agonist and antagonist) on 47 proteins” value in the series on set of 47 proteins is “no noteworthy activity”. Besides, the IC50 with MCF7 cells is 15.8 ± 1.3 µM; in the series with A375 cells, 12.6 ± 0.7 µM; at human topoIIβ it was about 100 µM; in the series on A549 cells, 17.1 ± 8.7 µM; with HeLa cells it was 38.2 ± 9.1 µM; in the series on G-361 cells, 8.1 ± 2.9 µM. In addition, the “activity vs the hERG channel” value on hERG channel is “no noteworthy activity”. The “phosphorylation of H2AX (reporter of DNA damage)” value in series [1] is “did not induce the phosphorylation of H2AX”. In addition, the DNA intercalation result with relaxed pBR322 DNA is recorded as “did not show this behavior; also recorded: does not intercalate into DNA”. Moreover, on human topoIIα [2], the “ability to increase enzyme-mediated DNA cleavage” value is “no ability to increase levels of enzyme-mediated DNA cleavage”. For the same molecule, the “inhibition of topoIIα-catalyzed ATP hydrolysis” value was “none” against human topoIIα [3] (in the absence of DNA) and “little ability to inhibit” at human topoIIα [3] (in the presence of DNA). Also, the “specificity for topoIIα over topoIIβ” value on human topoIIα [4] was ~ 50 fold. In series [5], the brain penetration result is given as “able to reach the brain”.
With `COc1cc([C@@H]2c3cc4c(cc3[C@@H](O[C@@H]3O[C@@H]5CO[C@@H](C)O[C@H]5[C@H](O)[C@H]3O)[C@H]3COC(=O)[C@H]23)OCO4)cc(OC)c1O` [Etoposide, etoposide, reference compound], the IC50 in the series with MCF7 cells was 8.9 ± 1.6 µM; in the series with A375 cells, 0.5 ± 0.1 µM; with A549 cells, 2.4 ± 2 µM; in the series on G-361 cells, 3.8 ± 3 µM.
